From patent US6673791B2, “Non-nucleoside reverse transcriptase inhibitors” (Boehringer Ingelheim (Canada) Ltd., priority 2001, dated 2004)
pEC50, pIC50: −log10 of the molar value. Read-outs that look alike come from different tables or passages of the source.

How the values were obtained:
[1] = system: WT RT (HIV-1 wild type strain); test: EC50 assay, WT RT strain; assay type: cell-based
Description: (§1) Reverse TranscriptASE (RT) Assays
(§2) The assays are as described in WO 01/96338A1, the contents of which are hereby incorporated herein. The results are listed in Tables 8 as IC50(nM) and EC50(nM).

[2] = system: K103N/Y181C (HIV-1 double mutant strain); test: EC50 assay, K103N/Y181C strain; assay type: cell-based
Description: as §1, §2

[3] = biological target: T1, Y188L mutant RT (HIV-1 RT) (Human immunodeficiency virus type 1 group M subtype B, UniProt P03366, Y787L); test: biochemical; details: for IC50: IC50 Y188L (nM); for pIC50: read-out: IC50 Y188L
T1 construct: mutations that occur in the reverse transcriptase segment of the pol gene
Description: (§3) Based upon testing of these compounds, as described below, it is known that they inhibit the RNA-dependent DNA polymerase activity of HIV-1 RT. […] Utilising the Reverse Transcriptase (RT) Assay described below, compounds can be tested for their ability to inhibit the RNA-dependent DNA polymerase activity of HIV-1 RT. Certain specific compounds described in the Examples which appear below, were so tested. The results of this testing appear in Table 4 as IC50 (nM) and Table 5 as EC50 (nM).
as §1, §2

[4] = biological target: T2, V106A mutant RT (HIV-1 RT) (Human immunodeficiency virus type 1 group M subtype B, UniProt P03366, V705A); test: biochemical; details: for IC50: IC50 V106A (nM)
T2 construct: mutations that occur in the reverse transcriptase segment of the pol gene
Description: as §3, §1, §2

[5] = biological target: T3, K103N/Y181C double mutant RT (HIV-1 RT) (Human immunodeficiency virus type 1 group M subtype B, UniProt P03366, K702N/Y780C); test: biochemical
T3 construct: mutations that occur in the reverse transcriptase segment of the pol gene
Description: as §3, §1, §2

WT RT (HIV-1 RT) = biological target: T4, WT RT (HIV-1 RT) (Human immunodeficiency virus type 1 group M subtype B, UniProt P03366); test: biochemical
T4 construct: mutations that occur in the reverse transcriptase segment of the pol gene
Description: as §3, §1, §2

[6] = Human immunodeficiency virus 1, read-out: EC50 WT RT (nM)
[7] = Human immunodeficiency virus 1, read-out: EC50 K103N/Y181C (nM), K103N/Y181C double mutant

## CCN1c2ncc(CCOc3ccc(CC(=O)NN)c4ccccc34)cc2C(=O)N(C)c2cccnc21 [Entry 1015]
[1]; [6]
  EC50: < 100 nM
[2]; [7]
  EC50: < 100 nM
[3]
  IC50: 100 to 1000 nM
[4]
  IC50: 100 to 1000 nM
[5]
  pIC50: > 7.00
WT RT (HIV-1 RT)
  pIC50: > 7.00

## CCN1c2ncc(CCOc3ccc(C(=O)O)c4ccccc34)cc2C(=O)N(C)c2ccc(F)nc21 [Entry 1006]
[1]; [6]
  EC50: < 100 nM
[2]; [7]
  EC50: < 100 nM
[3]
  IC50: > 1000 nM
[4]
  IC50: > 1000 nM
[5]
  pIC50: 6.00 to 7.00
WT RT (HIV-1 RT)
  pIC50: > 7.00

## CCN1c2ncc(CCOc3ccc4cc(C(=O)NN)ccc4c3)cc2C(=O)N(C)c2cccnc21 [Entry 3002]
[1]; [6]
  EC50: < 100 nM
[2]; [7]
  EC50: 100 to 1000 nM
[3]
  IC50: > 1000 nM
[4]
  IC50: < 100 nM
[5]
  pIC50: 6.00 to 7.00
WT RT (HIV-1 RT)
  pIC50: > 7.00

## CCN1c2ncc(CCOc3ccc(CC(=O)O)c4ccccc34)cc2C(=O)N(C)c2ccc(Cl)nc21 [Entry 1010]
[1]; [6]
  EC50: < 100 nM
[2]; [7]
  EC50: < 100 nM
[3]
  IC50: > 1000 nM
[4]
  IC50: > 1000 nM
[5]
  pIC50: 6.00 to 7.00
WT RT (HIV-1 RT)
  pIC50: > 7.00

## CCN1c2ncc(CCOc3ccc(C(=O)O)c4ccccc34)cc2C(=O)Nc2c(C)cc(Cl)nc21 [Entry 1007]
[1]; [6]
  EC50: < 100 nM
[2]; [7]
  EC50: < 100 nM
[3]
  IC50: > 1000 nM
[4]
  IC50: 100 to 1000 nM
[5]
  pIC50: 6.00 to 7.00
WT RT (HIV-1 RT)
  pIC50: > 7.00

## CCN1c2ncc(CCOc3ccc(CCC(=O)O)c4ccccc34)cc2C(=O)N(C)c2cccnc21 [Entry 1021]
[1]; [6]
  EC50: < 100 nM
[2]; [7]
  EC50: < 100 nM
[3]
  IC50: > 1000 nM
[4]
  IC50: > 1000 nM
[5]
  pIC50: 6.00 to 7.00
WT RT (HIV-1 RT)
  pIC50: > 7.00

## CCN1c2ncc(CCOc3ccc(/C=C/C(=O)O)c4ccccc34)cc2C(=O)Nc2c(C)cc(Cl)nc21 [Entry 1030]
[1]; [6]
  EC50: < 100 nM
[2]; [7]
  EC50: < 100 nM
[3]
  IC50: > 1000 nM
[4]
  IC50: < 100 nM
[5]
  pIC50: 6.00 to 7.00
WT RT (HIV-1 RT)
  pIC50: > 7.00

## CCN1c2ncc(CCOc3ccc(/C=C(\C)C(=O)O)c4ccccc34)cc2C(=O)N(C)c2ccc(Cl)nc21 [Entry 1036]
[1]; [6]
  EC50: < 100 nM
[2]; [7]
  EC50: < 100 nM
[3]
  IC50: > 1000 nM
[4]
  IC50: 100 to 1000 nM
[5]
  pIC50: 6.00 to 7.00
WT RT (HIV-1 RT)
  pIC50: > 7.00

## CCN1c2ncc(CCOc3ccc(/C(C)=C/C(=O)O)c4ccccc34)cc2C(=O)N(C)c2cccnc21 [Entry 1048]
[1]; [6]
  EC50: < 100 nM
[2]; [7]
  EC50: < 100 nM
[3]
  IC50: > 1000 nM
[4]
  IC50: > 1000 nM
[5]
  pIC50: 6.00 to 7.00
WT RT (HIV-1 RT)
  pIC50: > 7.00

## CCN1c2ncc(CCOc3ccc(/C=C/C(=O)O)c4ccccc34)cc2C(=O)Nc2c(C)cc(Cl)nc21 [Entry 2018]
[1]; read-out: EC50 WT RT; wild type
  pEC50: > 7.00
[2]; read-out: EC50 K103N/Y181C; K103N/Y181C double mutant
  pEC50: 6.00 to 7.00
[3]
  pIC50: < 6.00
[4]
  IC50: 100 to 1000 nM
[5]; read-out: IC50 K103N/Y181C, K103N/Y181C double mutant RT
  pIC50: 6.00 to 7.00
WT RT (HIV-1 RT); read-out: IC50 WT RT, wild type RT
  pIC50: > 7.00

## CCN1c2ncc(CCOc3ccc(CC(=O)O)c4ccccc34)cc2C(=O)N(C)c2cccnc21 [Entry 1008]
[1]; wild type; read-out: EC50 WT RT
  pEC50: > 7.00
[2]; K103N/Y181C double mutant; read-out: EC50 K103N/Y181C
  pEC50: > 7.00
[3]
  pIC50: < 6.00
[4]; read-out: IC50 V106A
  pIC50: < 6.00
[5]; K103N/Y181C double mutant RT, read-out: IC50 K103N/Y181C
  pIC50: 6.00 to 7.00
WT RT (HIV-1 RT); wild type RT, read-out: IC50 WT RT
  pIC50: > 7.00

## CCN1c2ncc(CCOc3ccc(/C=C(\C)C(=O)O)c4ccccc34)cc2C(=O)N(C)c2ccc(C)nc21 [Entry 1038]
[1]; [6]
  EC50: < 100 nM
[2]; [7]
  EC50: < 100 nM
[3]
  IC50: > 1000 nM
[4]
  IC50: > 1000 nM
[5]
  pIC50: 6.00 to 7.00
WT RT (HIV-1 RT)
  pIC50: > 7.00

## CCN1c2ncc(CCOc3ccc(C4CC4C(=O)O)c4ccccc34)cc2C(=O)N(C)c2ccc(F)nc21 (stereo not drawn) [Entry 1050]
[1]; [6]
  EC50: < 100 nM
[2]; [7]
  EC50: 100 to 1000 nM
[3]
  IC50: 100 to 1000 nM
[4]
  IC50: 100 to 1000 nM
[5]
  pIC50: 6.00 to 7.00
WT RT (HIV-1 RT)
  pIC50: > 7.00

## CCN1c2ncc(CCOc3ccc(CCC(=O)O)c4c3CCCC4)cc2C(=O)N(C)c2ccc(Cl)nc21 [Entry 5010]
[1]; [6]
  EC50: < 100 nM
[2]; [7]
  EC50: < 100 nM
[3]
  IC50: 100 to 1000 nM
[4]
  IC50: > 1000 nM
[5]
  pIC50: 6.00 to 7.00
WT RT (HIV-1 RT)
  pIC50: > 7.00

## CCN1c2ncc(CCOc3ccc(CCC(=O)O)c4ccccc34)cc2C(=O)Nc2c(C)cc(Cl)nc21 [Entry 1025]
[1]; [6]
  EC50: < 100 nM
[2]; [7]
  EC50: 100 to 1000 nM
[3]
  IC50: > 1000 nM
[4]
  IC50: 100 to 1000 nM
[5]
  pIC50: 6.00 to 7.00
WT RT (HIV-1 RT)
  pIC50: > 7.00

## CCN1c2ncc(CCOc3ccc4cc(CC(=O)NN)ccc4c3)cc2C(=O)N(C)c2cccnc21 [Entry 3005]
[1]; [6]
  EC50: < 100 nM
[2]; [7]
  EC50: < 100 nM
[3]
  IC50: 100 to 1000 nM
[4]
  IC50: < 100 nM
[5]
  pIC50: 6.00 to 7.00
WT RT (HIV-1 RT)
  pIC50: > 7.00
